#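 Five concentrations, 48 hours, 96-well plates. GI50 = concentration required for 50% inhibition of growth.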 Calls of active or inactive are those of the source. Rule as the data show it: active = GI50 up to about 1.1 µM and inactive = higher.
# Tests used:
# Assay in all cases: inhibition of tumour cell growth, NCI panel, 48 h
# [1] = tested on: EKVX
# [2] = tested on: HCC 2998
# [3] = tested on: NCI-H522
# [4] = tested on: LOX IMVI
# [5] = tested on: UO-31
# [6] = tested on: PC-3
# [7] = tested on: SN12C
# [8] = tested on: OVCAR-8
# [9] = tested on: BT-549
# [10] = tested on: M14
# [11] = tested on: IGROV-1
# [12] = tested on: COLO 205
# [13] = tested on: MDA-MB-435
# [14] = tested on: NCI-H460
# [15] = tested on: OVCAR-3
# [16] = tested on: SK-MEL-28
# [17] = tested on: KM12
# [18] = tested on: NCI-H226
# [19] = tested on: SF-539
# [20] = tested on: HCT-116
# [21] = tested on: SK-MEL-5
# [22] = tested on: HL-60
# [23] = tested on: 786-0
# [24] = tested on: ACHN
# [25] = tested on: SF-295
# [26] = tested on: RXF 393
# [27] = tested on: HCT-15
# [28] = tested on: SF-268
# [29] = tested on: MDA-N
# [30] = tested on: DU-145
# [31] = tested on: K562
# [32] = tested on: SNB-19
# [33] = tested on: MCF7
# [34] = tested on: SNB-75
# [35] = tested on: HT-29
# [36] = tested on: NCI-H23
# [37] = tested on: A498
# [38] = tested on: Hs-578T
# [39] = tested on: Malme-3M
# [40] = tested on: U-251
# [41] = tested on: A549
# [42] = tested on: SK-OV-3
# [43] = tested on: SK-MEL-2
# [44] = tested on: UACC-62
# [45] = tested on: OVCAR-5
# [46] = tested on: UACC-257
# [47] = tested on: NCI/ADR-RES
# [48] = tested on: MDA-MB-231
# [49] = tested on: SR
# [50] = tested on: SW-620
# [51] = tested on: MOLT-4
# [52] = tested on: CAKI-1
# [53] = tested on: RPMI-8226
# [54] = tested on: CCRF-CEM
# [55] = tested on: TK-10
# [56] = tested on: HOP-62
# [57] = tested on: OVCAR-4
# [58] = tested on: HOP-92
# [59] = tested on: T47D
compound,measurement,setting,value
C/C(=N/NC(=S)N1CCCCC1)c1cccc(/C(C)=N\NC(=S)N2CCCCC2)n1,GI50,[1],2.13 µM (inactive)
same,GI50,[2],2.33 µM (inactive)
same,GI50,[3],1.77 µM (inactive)
same,GI50,[4],2.07 µM (inactive)
same,GI50,[5],1.45 µM (inactive)
same,GI50,[6],1.65 µM (inactive)
same,GI50,[7],1.93 µM (inactive)
same,GI50,[8],1.67 µM (inactive)
same,GI50,[9],1.92 µM (inactive)
same,GI50,[10],1.94 µM (inactive)
same,GI50,[11],1.94 µM (inactive)
same,GI50,[12],2.43 µM (inactive)
same,GI50,[13],1.92 µM (inactive)
same,GI50,[14],1.89 µM (inactive)
same,GI50,[15],2.21 µM (inactive)
same,GI50,[16],2.01 µM (inactive)
same,GI50,[17],2.33 µM (inactive)
same,GI50,[18],2.05 µM (inactive)
same,GI50,[19],1.92 µM (inactive)
same,GI50,[20],1.74 µM (inactive)
same,GI50,[21],1.95 µM (inactive)
same,GI50,[22],1.84 µM (inactive)
same,GI50,[23],2.01 µM (inactive)
same,GI50,[24],1.46 µM (inactive)
same,GI50,[25],1.95 µM (inactive)
same,GI50,[26],2.26 µM (inactive)
same,GI50,[27],1.66 µM
same,GI50,[28],3.22 µM (inactive)
same,GI50,[29],1.51 µM (inactive)
same,GI50,[30],2.23 µM (inactive)
same,GI50,[31],2.28 µM (inactive)
same,GI50,[32],2.47 µM (inactive)
same,GI50,[33],1.86 µM (inactive)
same,GI50,[34],2.62 µM (inactive)
same,GI50,[35],2.51 µM (inactive)
same,GI50,[36],3.93 µM (inactive)
same,GI50,[37],1.69 µM (inactive)
same,GI50,[38],2.38 µM (inactive)
same,GI50,[39],2.29 µM (inactive)
same,GI50,[40],2.04 µM (inactive)
same,GI50,[41],3 µM (inactive)
same,GI50,[42],1.91 µM (inactive)
same,GI50,[43],2.1 µM (inactive)
same,GI50,[44],2.42 µM (inactive)
same,GI50,[45],0.423 µM (active)
same,GI50,[46],2.85 µM (inactive)
same,GI50,[47],2.06 µM (inactive)
same,GI50,[48],1.31 µM (inactive)
same,GI50,[49],2.07 µM (inactive)
same,GI50,[50],3.15 µM (inactive)
same,GI50,[51],2.4 µM (inactive)
same,GI50,[52],2.08 µM (inactive)
same,GI50,[53],2.3 µM (inactive)
same,GI50,[54],3 µM (inactive)
same,GI50,[55],1.8 µM (inactive)
same,GI50,[56],4.71 µM (inactive)
O=[N+]([O-])/C=C/c1cn(CCCCCCCCCCCCn2cc(/C=C/[N+](=O)[O-])c3ccccc32)c2ccccc12,GI50,[1],> 100 µM (inactive)
same,GI50,[2],> 100 µM (inactive)
same,GI50,[3],> 100 µM (inactive)
same,GI50,[57],> 100 µM (inactive)
same,GI50,[4],> 100 µM (inactive)
same,GI50,[5],> 100 µM (inactive)
same,GI50,[6],> 100 µM (inactive)
same,GI50,[7],> 100 µM (inactive)
same,GI50,[8],> 100 µM (inactive)
same,GI50,[9],> 100 µM (inactive)
same,GI50,[10],> 100 µM (inactive)
same,GI50,[11],> 100 µM (inactive)
same,GI50,[12],> 100 µM (inactive)
same,GI50,[13],> 100 µM (inactive)
same,GI50,[14],> 100 µM (inactive)
same,GI50,[15],> 100 µM (inactive)
same,GI50,[16],> 100 µM (inactive)
same,GI50,[17],> 100 µM (inactive)
same,GI50,[18],> 100 µM (inactive)
same,GI50,[19],> 100 µM (inactive)
same,GI50,[20],> 100 µM (inactive)
same,GI50,[21],> 100 µM (inactive)
same,GI50,[22],> 100 µM (inactive)
same,GI50,[23],> 100 µM (inactive)
same,GI50,[24],> 100 µM (inactive)
same,GI50,[27],> 100 µM
same,GI50,[29],> 100 µM (inactive)
same,GI50,[30],> 100 µM (inactive)
same,GI50,[33],> 100 µM (inactive)
same,GI50,[35],> 100 µM (inactive)
same,GI50,[36],> 100 µM (inactive)
same,GI50,[37],> 100 µM (inactive)
same,GI50,[38],> 100 µM (inactive)
same,GI50,[39],> 100 µM (inactive)
same,GI50,[40],> 100 µM (inactive)
same,GI50,[41],> 100 µM (inactive)
same,GI50,[42],> 100 µM (inactive)
same,GI50,[43],> 100 µM (inactive)
same,GI50,[44],> 100 µM (inactive)
same,GI50,[45],> 100 µM (inactive)
same,GI50,[46],> 100 µM (inactive)
same,GI50,[47],> 100 µM (inactive)
same,GI50,[48],> 100 µM (inactive)
same,GI50,[49],> 100 µM (inactive)
same,GI50,[50],> 100 µM (inactive)
same,GI50,[51],> 100 µM (inactive)
same,GI50,[58],> 100 µM (inactive)
same,GI50,[52],> 100 µM (inactive)
same,GI50,[53],> 100 µM (inactive)
same,GI50,[54],> 100 µM (inactive)
same,GI50,[55],> 100 µM (inactive)
same,GI50,[56],> 100 µM (inactive)
COC(=O)/C=C(/OC)[C@H](C)[C@H](/C=C/c1csc(-c2csc(C(C)C)n2)n1)OC,GI50,[1],0.721 µM (active)
same,GI50,[3],1.21 µM (inactive)
same,GI50,[57],0.416 µM (active)
same,GI50,[4],0.0838 µM (active)
same,GI50,[5],0.703 µM (active)
same,GI50,[6],0.126 µM (active)
same,GI50,[7],10.3 µM (inactive)
same,GI50,[8],0.785 µM (active)
same,GI50,[9],4.8 µM (inactive)
same,GI50,[10],1.44 µM (inactive)
same,GI50,[11],0.426 µM (active)
same,GI50,[12],3.38 µM (inactive)
same,GI50,[13],0.925 µM (active)
same,GI50,[14],0.0521 µM (active)
same,GI50,[15],0.35 µM (active)
same,GI50,[16],63.5 µM (inactive)
same,GI50,[17],1.52 µM (inactive)
same,GI50,[18],4.19 µM (inactive)
same,GI50,[19],8.79 µM (inactive)
same,GI50,[20],0.284 µM (active)
same,GI50,[21],< 0.0177 µM (active)
same,GI50,[22],2.51 µM (inactive)
same,GI50,[23],7.45 µM (inactive)
same,GI50,[24],0.124 µM (active)
same,GI50,[25],0.0681 µM (active)
same,GI50,[26],1.35 µM (inactive)
same,GI50,[27],0.0975 µM
same,GI50,[28],0.647 µM (active)
same,GI50,[31],0.52 µM (active)
same,GI50,[33],0.178 µM (active)
same,GI50,[34],> 100 µM (inactive)
same,GI50,[35],0.29 µM (active)
same,GI50,[36],0.569 µM (active)
same,GI50,[37],5.97 µM (inactive)
same,GI50,[38],> 57.8 µM (inactive)
same,GI50,[39],18.8 µM (inactive)
same,GI50,[40],0.149 µM (active)
same,GI50,[41],0.136 µM (active)
same,GI50,[42],> 62.1 µM (inactive)
same,GI50,[43],28 µM (inactive)
same,GI50,[44],0.33 µM (active)
same,GI50,[45],> 100 µM (inactive)
same,GI50,[46],0.455 µM (active)
same,GI50,[47],0.841 µM (active)
same,GI50,[48],4.69 µM (inactive)
same,GI50,[49],0.0929 µM (active)
same,GI50,[50],0.741 µM (active)
same,GI50,[51],0.0703 µM (active)
same,GI50,[58],6.07 µM (inactive)
same,GI50,[52],7.08 µM (inactive)
same,GI50,[53],0.373 µM (active)
same,GI50,[54],18.2 µM (inactive)
same,GI50,[56],> 43.3 µM (inactive)
same,GI50,[59],1.4 µM (inactive)

# From ChEMBL document CHEMBL1201862, “PubChem BioAssay data set” (2004)
